PubChem BioAssay AID1918998 (Molecular Pharmacology Branch, DTP, NCI, 2023)
Where “and” joins values, the source holds several entries; their conditions need not be identical. Equal entries are not always repeated. Each block holds one compound with its values, some of them ahead of it.

Test system: 521955-158-R2-J5-PDC complex spheroid growth
Assay: Anticancer human tumor 521955-158-R2-J5-PDC patient-derived pancreatic carcinoma cell line growth inhibition [AhR]
Conditions: for viability, T/C: stronger effect = lower value
Method in brief: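 Spheroids combined tumor cells with HUVEC endothelial cells and human MSCs as stroma. AhR antagonists were paired with standard or investigational drugs, each dosed in half-log steps down from near clinical Cmax, or from 10 microM where Cmax was unknown.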

[1] = curve of first compound, second compound 0.1 µM
[2] = curve of first compound, second compound 0.316 µM
[3] = curve of first compound, second compound 1 µM
[4] = curve of first compound, second compound 3.16 µM
[5] = curve of first compound, second compound 10 µM
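Throughout, for viability, T/C: spheroids mix tumor cells with HUVEC endothelium and human MSC stroma; luminescence taken as viability surrogate after a week of drug exposure.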

- IC50 [1]: 0.00412 µM
- IC50 [2]: 0.0048 µM
- IC50 [3]: 0.00466 µM
- IC50 [4]: 0.0064 µM
- IC50 [5]: 0.0071 µM
SMILES: CCc1c2c(nc3ccc(O)cc13)-c1cc3c(c(=O)n1C2)COC(=O)[C@]3(O)CC + Cc1ccccc1N=Nc1ccc(NC(=O)c2ccnn2C)c(C)c1
- viability, T/C (second compound 0.1 µM, first compound 0.000949 µM): 65.2%
- viability, T/C (second compound 0.1 µM, first compound 0.003 µM): 56%
- viability, T/C (second compound 0.1 µM, first compound 0.00949 µM): 36.5%
- viability, T/C (second compound 0.1 µM, first compound 0.03 µM): 27%
- viability, T/C (second compound 0.1 µM, first compound 0.0949 µM): 18.6%
- viability, T/C (second compound 0.1 µM, first compound 0.3 µM): 13.8%
- viability, T/C (second compound 0.316 µM, first compound 0.000949 µM): 74.3%
- viability, T/C (second compound 0.316 µM, first compound 0.003 µM): 60.9%
- viability, T/C (second compound 0.316 µM, first compound 0.00949 µM): 34.1%
- viability, T/C (second compound 0.316 µM, first compound 0.03 µM): 22.3%
- viability, T/C (second compound 0.316 µM, first compound 0.0949 µM): 17%
- viability, T/C (second compound 0.316 µM, first compound 0.3 µM): 12.9%
- viability, T/C (second compound 1 µM, first compound 0.000949 µM): 91.7%
- viability, T/C (second compound 1 µM, first compound 0.003 µM): 61.8%
- viability, T/C (second compound 1 µM, first compound 0.00949 µM): 30.2%
- viability, T/C (second compound 1 µM, first compound 0.03 µM): 23.2%
- viability, T/C (second compound 1 µM, first compound 0.0949 µM): 17.5%
- viability, T/C (second compound 1 µM, first compound 0.3 µM): 14.3%
- viability, T/C (second compound 3.16 µM, first compound 0.000949 µM): 95.3%
- viability, T/C (second compound 3.16 µM, first compound 0.003 µM): 78.3%
- viability, T/C (second compound 3.16 µM, first compound 0.00949 µM): 33.9%
- viability, T/C (second compound 3.16 µM, first compound 0.03 µM): 23.5%
- viability, T/C (second compound 3.16 µM, first compound 0.0949 µM): 15.3%
- viability, T/C (second compound 3.16 µM, first compound 0.3 µM): 11.7%
- viability, T/C (second compound 10 µM, first compound 0.000949 µM): 114%
- viability, T/C (second compound 10 µM, first compound 0.003 µM): 89.8%
- viability, T/C (second compound 10 µM, first compound 0.00949 µM): 35.1%
- viability, T/C (second compound 10 µM, first compound 0.03 µM): 24.1%
- viability, T/C (second compound 10 µM, first compound 0.0949 µM): 16.2%
- viability, T/C (second compound 10 µM, first compound 0.3 µM): 11.5%

- IC50 (curve of compound): 0.907 µM and 0.158 µM and 0.564 µM
SMILES: Nc1ncn(C2CC(O)C(CO)O2)c(=O)n1 (configuration not stated)
- viability, T/C (compound 0.00316 µM): 92.7% and 87.2% and 101%
- viability, T/C (compound 0.01 µM): 90.8% and 72.2% and 80.4%
- viability, T/C (compound 0.0316 µM): 88.8% and 87.9% and 88.9%
- viability, T/C (compound 0.1 µM): 73% and 52.6% and 68.5%
- viability, T/C (compound 0.316 µM): 65.5% and 53.7% and 63%
- viability, T/C (compound 1 µM): 48.3% and 38.4% and 39.5%

- IC50 [1]: 4.56 µM
- IC50 [2]: 3.74 µM
- IC50 [3]: 2.94 µM
- IC50 [4]: 3.62 µM
- IC50 [5]: 3.36 µM
SMILES: Nc1ccccc1NC(=O)c1ccc(CNC(=O)OCc2cccnc2)cc1 + CC(CO)NC(=O)c1cc(-c2ccc(Cl)cc2)nn(-c2cnn(C)c2)c1=O
- viability, T/C (second compound 0.1 µM, first compound 0.0316 µM): 119%
- viability, T/C (second compound 0.1 µM, first compound 0.1 µM): 126%
- viability, T/C (second compound 0.1 µM, first compound 0.316 µM): 123%
- viability, T/C (second compound 0.1 µM, first compound 1 µM): 87.9%
- viability, T/C (second compound 0.1 µM, first compound 3.16 µM): 66.2%
- viability, T/C (second compound 0.1 µM, first compound 10 µM): 22.9%
- viability, T/C (second compound 0.316 µM, first compound 0.0316 µM): 111%
- viability, T/C (second compound 0.316 µM, first compound 0.1 µM): 130%
- viability, T/C (second compound 0.316 µM, first compound 0.316 µM): 114%
- viability, T/C (second compound 0.316 µM, first compound 1 µM): 85.9%
- viability, T/C (second compound 0.316 µM, first compound 3.16 µM): 57.1%
- viability, T/C (second compound 0.316 µM, first compound 10 µM): 25.2%
- viability, T/C (second compound 1 µM, first compound 0.0316 µM): 118%
- viability, T/C (second compound 1 µM, first compound 0.1 µM): 134%
- viability, T/C (second compound 1 µM, first compound 0.316 µM): 120%
- viability, T/C (second compound 1 µM, first compound 1 µM): 77.1%
- viability, T/C (second compound 1 µM, first compound 3.16 µM): 54.6%
- viability, T/C (second compound 1 µM, first compound 10 µM): 20%
- viability, T/C (second compound 3.16 µM, first compound 0.0316 µM): 115%
- viability, T/C (second compound 3.16 µM, first compound 0.1 µM): 109%
- viability, T/C (second compound 3.16 µM, first compound 0.316 µM): 117%
- viability, T/C (second compound 3.16 µM, first compound 1 µM): 75.6%
- viability, T/C (second compound 3.16 µM, first compound 3.16 µM): 58.8%
- viability, T/C (second compound 3.16 µM, first compound 10 µM): 17.6%
- viability, T/C (second compound 10 µM, first compound 0.0316 µM): 94.7%
- viability, T/C (second compound 10 µM, first compound 0.1 µM): 91%
- viability, T/C (second compound 10 µM, first compound 0.316 µM): 101%
- viability, T/C (second compound 10 µM, first compound 1 µM): 81.6%
- viability, T/C (second compound 10 µM, first compound 3.16 µM): 52.6%
- viability, T/C (second compound 10 µM, first compound 10 µM): 14.1%
